Calls of active or inactive are those of the source. The calls are words filed in the database; no cut-off is given here.
Legend:
Huh-7 [1] = assay: Antiproliferative activity against human Huh-7 cells assessed as reduction in cell viability measured after 40 to 150 hrs by RT-CES analysis; type: functional, cell-based; conditions: time 40-150 hrs
Huh-7 [2] = assay: Inhibition of cell stemness in human Huh-7 cells assessed as decrease in OCT4 mRNA level at 10 uM measured after 72 hrs by RT-qPCR analysis; type: functional, cell-based
[3] = target: T1, Mitogen-activated protein kinase; ERK1/ERK2 (Homo sapiens) (UniProt P27361+P28482); assay: Downregulation of ERK1/2 phosphorylation at T202/Y204 residue in human HepG2 cells at 5 uM measured after 72 hrs by Western blot analysis; type: cell-based
T1 sequence (P27361 whole entry, looked up): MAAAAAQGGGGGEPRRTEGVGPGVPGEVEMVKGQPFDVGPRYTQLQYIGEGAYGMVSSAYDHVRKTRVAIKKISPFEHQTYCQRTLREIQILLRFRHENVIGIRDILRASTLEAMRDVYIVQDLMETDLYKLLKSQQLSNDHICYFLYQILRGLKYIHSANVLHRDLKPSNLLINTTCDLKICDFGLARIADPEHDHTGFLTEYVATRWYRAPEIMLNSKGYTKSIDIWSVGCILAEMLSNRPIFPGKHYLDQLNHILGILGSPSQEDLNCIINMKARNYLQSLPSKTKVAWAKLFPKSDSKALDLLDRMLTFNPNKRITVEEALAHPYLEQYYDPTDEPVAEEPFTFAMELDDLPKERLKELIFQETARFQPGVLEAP
T1 sequence (P28482 whole entry, looked up): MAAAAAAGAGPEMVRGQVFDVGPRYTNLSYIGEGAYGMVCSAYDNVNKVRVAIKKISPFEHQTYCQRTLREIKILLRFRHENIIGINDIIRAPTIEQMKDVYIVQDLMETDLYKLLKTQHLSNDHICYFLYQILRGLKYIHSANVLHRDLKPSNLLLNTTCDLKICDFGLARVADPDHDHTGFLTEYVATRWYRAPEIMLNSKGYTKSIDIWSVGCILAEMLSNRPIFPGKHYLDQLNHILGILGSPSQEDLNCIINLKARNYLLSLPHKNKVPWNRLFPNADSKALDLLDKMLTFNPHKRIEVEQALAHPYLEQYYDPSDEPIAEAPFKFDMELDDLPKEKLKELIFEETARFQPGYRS

SNU-475 [4] = assay: Activation of p53 harboring A239G/T275C/A288G mutant in human SNU-475 cells assessed as upregulation of p53 phosphorylation at Ser15 residue at 5 uM incubated for 72 hrs by western blot analysis; type: cell-based; conditions: filed as activator
SNU-475 [5] = assay: Induction of apoptosis in human SNU-475 cells assessed as nuclear fragmentation measured after 48 hrs by Hoechst33258 staining based inverted fluorescent microscopic method; type: functional, cell-based
Mahlavu [6] = assay: Induction of apoptosis in human Mahlavu cells assessed as chromatin condensation measured after 48 hrs by Hoechst33258 staining based inverted fluorescent microscopic method; type: functional, cell-based
Mahlavu [7] = assay: Activation of p53 harboring G249T mutant in human Mahlavu cells assessed as upregulation of p53 acetylation at Lys382 residue at 5 uM incubated for 72 hrs by western blot analysis; type: cell-based; conditions: filed as activator
Mahlavu [8] = assay: Antiproliferative activity against human Mahlavu cells assessed as reduction in cell viability measured after 90 hrs by RT-CES analysis; type: functional, cell-based
[9] = target: T2, Serine/threonine-protein kinase AKT (Homo sapiens) (UniProt P31751+Q9Y243+P31749); assay: Inhibition of Akt phosphorylation at Ser473 residue in human HepG2 cells at 5 uM measured after 72 hrs by Western blot analysis; type: cell-based
T2 sequence (P31749 whole entry, looked up, the tested form may be a part): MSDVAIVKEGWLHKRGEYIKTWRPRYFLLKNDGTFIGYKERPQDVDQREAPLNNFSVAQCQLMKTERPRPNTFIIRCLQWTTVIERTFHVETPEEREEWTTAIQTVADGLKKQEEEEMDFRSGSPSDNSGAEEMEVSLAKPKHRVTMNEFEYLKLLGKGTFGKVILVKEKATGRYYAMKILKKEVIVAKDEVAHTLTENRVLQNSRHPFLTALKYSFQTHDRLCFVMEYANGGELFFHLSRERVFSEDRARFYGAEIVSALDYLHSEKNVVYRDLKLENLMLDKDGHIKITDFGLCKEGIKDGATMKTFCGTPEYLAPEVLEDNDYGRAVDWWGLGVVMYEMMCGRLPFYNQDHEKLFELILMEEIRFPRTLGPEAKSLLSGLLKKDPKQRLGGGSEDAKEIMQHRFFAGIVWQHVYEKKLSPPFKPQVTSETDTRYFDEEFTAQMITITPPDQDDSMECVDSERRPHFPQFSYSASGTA
T2 sequence (P31751 whole entry, looked up, the tested form may be a part): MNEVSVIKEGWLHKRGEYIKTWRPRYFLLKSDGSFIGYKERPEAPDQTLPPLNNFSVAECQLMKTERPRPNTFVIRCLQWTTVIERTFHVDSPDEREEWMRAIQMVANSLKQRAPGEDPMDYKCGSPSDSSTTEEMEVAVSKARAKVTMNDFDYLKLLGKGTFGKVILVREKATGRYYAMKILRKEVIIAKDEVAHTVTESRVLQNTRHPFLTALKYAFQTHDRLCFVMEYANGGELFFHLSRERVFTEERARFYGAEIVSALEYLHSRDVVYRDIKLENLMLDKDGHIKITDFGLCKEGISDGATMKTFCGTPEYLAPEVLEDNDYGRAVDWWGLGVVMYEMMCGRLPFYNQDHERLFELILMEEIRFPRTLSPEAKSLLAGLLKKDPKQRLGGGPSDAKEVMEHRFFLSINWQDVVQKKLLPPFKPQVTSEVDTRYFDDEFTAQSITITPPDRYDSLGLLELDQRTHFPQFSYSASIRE
T2 sequence (Q9Y243 whole entry, looked up, the tested form may be a part): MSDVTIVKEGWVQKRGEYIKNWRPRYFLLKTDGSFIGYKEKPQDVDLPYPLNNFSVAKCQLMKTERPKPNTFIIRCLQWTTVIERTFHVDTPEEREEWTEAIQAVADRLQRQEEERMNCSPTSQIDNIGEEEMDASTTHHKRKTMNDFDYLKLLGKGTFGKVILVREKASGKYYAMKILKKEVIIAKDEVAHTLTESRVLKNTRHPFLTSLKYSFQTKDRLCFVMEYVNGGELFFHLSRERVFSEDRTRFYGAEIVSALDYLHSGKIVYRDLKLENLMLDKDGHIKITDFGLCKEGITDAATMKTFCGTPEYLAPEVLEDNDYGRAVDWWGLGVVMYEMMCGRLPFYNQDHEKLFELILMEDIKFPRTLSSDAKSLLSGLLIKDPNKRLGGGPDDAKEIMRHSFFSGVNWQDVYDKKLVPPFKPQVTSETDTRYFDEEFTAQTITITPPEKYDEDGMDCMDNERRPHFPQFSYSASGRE

HepG2 [10] = assay: Induction of apoptosis in human HepG2 cells assessed as nuclear fragmentation measured after 48 hrs by Hoechst33258 staining based inverted fluorescent microscopic method; type: functional, cell-based
SNU-475 [11] = assay: Cell cycle arrest in human SNU-475 cells assessed as increase in accumulation of cells at S phase at 5 uM measured after 48 hrs by propidium iodide staining based flow cytometric analysis; type: functional
[12] = Inhibition of PI3K/Akt/mTOR signaling in human Mahlavu cells assessed as downregulation of c-Myc protein expression at 5 uM measured after 72 hrs by Western blot analysis; type: cell-based
SNU-475 [13] = assay: Antiproliferative activity against human SNU-475 cells assessed as reduction in cell viability measured after 40 to 130 hrs by RT-CES analysis; type: functional, cell-based; conditions: time 40-130 hrs
Huh-7 [14] = assay: Induction of apoptosis in human Huh-7 cells assessed as nuclear fragmentation measured after 48 hrs by Hoechst33258 staining based inverted fluorescent microscopic method; type: functional, cell-based
HepG2 [15] = assay: Cell cycle arrest in human HepG2 cells assessed as increase in accumulation of cells at G0/G1 phase at 5 uM measured after 48 hrs by propidium iodide staining based flow cytometric analysis; type: functional
SNU-475 [16] = assay: Induction of apoptosis in human SNU-475 cells assessed as chromatin condensation measured after 48 hrs by Hoechst33258 staining based inverted fluorescent microscopic method; type: functional, cell-based
Huh-7 [17] = assay: Inhibition of cell stemness in human Huh-7 cells assessed as reduction in tumor spheres count at 10 uM incubated for 72 hrs followed by incubation in sphere formation medium for 14 days by microscopic analysis; type: functional, cell-based; conditions: time 17.0 day
HepG2 [18] = assay: Induction of apoptosis in human HepG2 cells assessed as apoptotic body formation measured after 48 hrs by Hoechst33258 staining based inverted fluorescent microscopic method; type: functional, cell-based
Mahlavu [19] = assay: Cell cycle arrest in human Mahlavu cells assessed as increase in accumulation of cells at subG1 phase at 5 uM measured after 48 hrs by propidium iodide staining based flow cytometric analysis; type: functional
[20] = target: Cellular tumor antigen p53 (Homo sapiens) (UniProt P04637); assay: Activation of p53 in human HepG2 cells at 5 uM measured after 72 hrs by Western blot analysis; type: cell-based
Cellular tumor antigen p53 (Homo sapiens), sequence (P04637 whole entry, looked up): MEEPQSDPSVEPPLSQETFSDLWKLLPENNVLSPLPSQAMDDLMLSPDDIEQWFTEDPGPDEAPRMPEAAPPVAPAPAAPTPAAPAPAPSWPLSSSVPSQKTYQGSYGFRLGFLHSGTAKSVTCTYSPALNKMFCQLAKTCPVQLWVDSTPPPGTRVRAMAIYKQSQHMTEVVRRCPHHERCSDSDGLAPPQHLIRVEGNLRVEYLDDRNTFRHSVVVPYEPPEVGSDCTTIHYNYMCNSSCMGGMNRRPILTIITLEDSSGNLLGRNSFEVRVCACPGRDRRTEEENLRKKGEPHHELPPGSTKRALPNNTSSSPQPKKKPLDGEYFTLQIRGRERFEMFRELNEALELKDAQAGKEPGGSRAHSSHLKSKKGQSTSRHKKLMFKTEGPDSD

Huh-7 [21] = assay: Inhibition of cell stemness in human Huh-7 cells assessed as CD133+/EpCAM+ expression at 10 uM measured after 72 hrs by flow cytometry analysis (reference value: 29.92%); type: functional; parameters: scale not given: the % may be the effect or the level left
[22] = target: T1, Mitogen-activated protein kinase; ERK1/ERK2 (Homo sapiens); assay: Downregulation of ERK1/2 phosphorylation at T202/Y204 residue in human Huh-7 cells at 5 uM measured after 72 hrs by Western blot analysis; type: cell-based
HepG2 [23] = assay: Antiproliferative activity against human HepG2 cells assessed as reduction in cell viability measured for 180 hrs by RT-CES analysis; type: functional, cell-based; conditions: dose 2.5-10 µM
Huh-7 [24] = assay: Antiproliferative activity against human Huh-7 cells assessed as reduction in cell viability measured for 180 hrs by RT-CES analysis; type: functional, cell-based; conditions: dose 2.5-10 µM
Huh-7 [25] = assay: Inhibition of cell stemness in human Huh-7 cells assessed as reduction in size of tumor spheres at 10 uM incubated for 72 hrs followed by incubation in sphere formation medium for 14 days by microscopic analysis; type: functional, cell-based; conditions: time 17.0 day
Mahlavu [26] = assay: Activation of p53 harboring G249T mutant in human Mahlavu cells assessed as upregulation of p21 protein expression at 5 uM incubated for 72 hrs by western blot analysis; type: cell-based
Huh-7 [27] = assay: Inhibition of cell stemness in human Huh-7 cells assessed as decrease in NANOG mRNA level at 10 uM measured after 72 hrs by RT-qPCR analysis; type: functional, cell-based
Mahlavu [28] = assay: Inhibition of cell stemness in human Mahlavu cells assessed as decrease in NANOG level at 10 uM measured after 72 hrs by flow cytometry analysis; type: functional, cell-based
Mahlavu [29] = assay: Antiproliferative activity against human Mahlavu cells assessed as reduction in cell viability measured after 72 hrs by SRB assay; type: functional, cell-based
Mahlavu [30] = assay: Induction of apoptosis in human Mahlavu cells assessed as apoptotic body formation measured after 48 hrs by Hoechst33258 staining based inverted fluorescent microscopic method; type: functional, cell-based
SNU-475 [31] = assay: Activation of p53 harboring A239G/T275C/A288G mutant in human SNU-475 cells assessed as upregulation of p21 protein expression at 5 uM incubated for 72 hrs by western blot analysis; type: cell-based; conditions: filed as activator
Mahlavu [32] = assay: Induction of apoptosis in human Mahlavu cells at 5 uM measured after 72 hrs by Annexin V-FITC/propidium iodide staining based flow cytometric analysis; type: functional, cell-based
Huh-7 [33] = assay: Inhibition of cell stemness in human Huh-7 cells assessed as reduction in tumor spheres count at 10 uM incubated for 72 hrs followed by incubation in sphere formation medium for 7 days by microscopic analysis; type: functional, cell-based; conditions: time 10.0 day
[34] = target: T2, Serine/threonine-protein kinase AKT (Homo sapiens); assay: Inhibition of Akt phosphorylation at Ser473 residue in human Huh-7 cells at 5 uM measured after 72 hrs by Western blot analysis; type: cell-based
Huh-7 [35] = assay: Induction of apoptosis in human Huh-7 cells assessed as chromatin condensation measured after 48 hrs by Hoechst33258 staining based inverted fluorescent microscopic method; type: functional, cell-based
MCF7 = assay: Antiproliferative activity against human MCF7 cells assessed as reduction in cell viability measured after 72 hrs by SRB assay; type: functional, cell-based; conditions: MCF7, 72 h
Huh-7 [36] = assay: Inhibition of cell stemness in human Huh-7 cells assessed as decrease in NANOG level at 10 uM measured after 72 hrs by flow cytometry analysis; type: functional, cell-based

| inhibition [3] | inhibition [9] | Activity [20] | Compound | Activity (Huh-7 [1]) | inhibition (Huh-7 [2]) | Activity (SNU-475 [4]) | Activity (SNU-475 [5]) | Activity (Mahlavu [6]) | Activity (Mahlavu [7]) | Activity (Mahlavu [8]) | Activity (HepG2 [10]) | Activity (SNU-475 [11]) | inhibition [12] | Activity (SNU-475 [13]) | Activity (Huh-7 [14]) | Activity (HepG2 [15]) | Activity (SNU-475 [16]) | inhibition (Huh-7 [17]) | Activity (HepG2 [18]) | Activity (Mahlavu [19]) | other results |
| --- | --- | --- | --- | --- | --- | --- | --- | --- | --- | --- | --- | --- | --- | --- | --- | --- | --- | --- | --- | --- | --- |
| Active | inactive | inactive | FC(F)(F)c1ccc(CN2CCN(Cc3cc(-c4ccc(OCc5ccccc5)cc4)on3)CC2)cc1 | Active | Active | Active | Active | Active | Active | Active | Active | Active | Active | Active | Active | Active | Active | Active | Active | Active | Activity (Huh-7 [21]): 23.68%; inhibition [22]: Active; Activity (HepG2 [23]): Dose-Dependent Effect; Activity (Huh-7 [24]): Dose-Dependent Effect; inhibition (Huh-7 [25]): Active; Activity (Mahlavu [26]): inactive; inhibition (Huh-7 [27]): Active; inhibition (Mahlavu [28]): Active; IC50 (Mahlavu [29]): 11.7 µM; Activity (Mahlavu [30]): Active; Activity (SNU-475 [31]): Active; Activity (Mahlavu [32]): Active; inhibition (Huh-7 [33]): Active; inhibition [34]: inactive; Activity (Huh-7 [35]): Active; IC50 (MCF7): 2.9 µM; inhibition (Huh-7 [36]): Active |
| Active | inactive | inactive | N#Cc1cccc(COc2ccc(-c3cc(CN4CCN(Cc5ccc(C(F)(F)F)cc5)CC4)no3)cc2F)c1 | Active | Active | Active | Active | Active | Active | Active | Active | Active | Active | Active | Active | Active | Active | Active | Active | Active | Activity (Huh-7 [21]): 13.12%; inhibition [22]: Active; Activity (HepG2 [23]): Dose-Dependent Effect; Activity (Huh-7 [24]): Dose-Dependent Effect; inhibition (Huh-7 [25]): Active; Activity (Mahlavu [26]): inactive; inhibition (Huh-7 [27]): Active; inhibition (Mahlavu [28]): Active; IC50 (Mahlavu [29]): 0.5 µM; Activity (Mahlavu [30]): Active; Activity (SNU-475 [31]): Active; Activity (Mahlavu [32]): Active; inhibition (Huh-7 [33]): Active; inhibition [34]: inactive; Activity (Huh-7 [35]): Active; IC50 (MCF7): 0.38 µM; inhibition (Huh-7 [36]): Active |
